Converted amounts (≈) assume the structure as drawn.

One may read the MIC as the lowest concentration found to suppress growth. A high value points to a less susceptible organism.

Holding throughout (format): cell-based
The test system of test [1] is Enterobacter cloacae IFO 12937. Kind of test: MIC by agar dilution method (Experimental Example). Conditions: IFO12937; test organism (1) Enterobacter cloacae IFO 12937; Trypticase soy agar; inoculum about 10^8 CFU/ml; overnight culture at 37°C; complete growth inhibition. Here is the method:
(§1) The MIC of each test compound was determined by the agar dilution method. Thus, a stock aqueous solution of each test compound is serially diluted and the resultant dilution series are put in petri dishes. Then, 9.0 ml of Trypticase soy agar per dish is added and mixed. Each of the agar plates is smeared with a suspension of the test organism (about 10^8 CFU/ml). After overnight culture at 37°C, the minimum concentration of the test compound that caused a complete growth inhibition of the organism is taken as the MIC (minimal inhibitory concentration) value.
(§2) • (1) Enterobacter cloacae IFO 12937 • (2) Klebsiella pneumoniae TN 1711
On the technique in general: In agar dilution, organisms are placed on agar that contains the substance at set levels.

Test [2] deals with Klebsiella pneumoniae TN 1711. The test is described as follows: MIC by agar dilution method (Experimental Example). Conditions: TN1711; test organism (2) Klebsiella pneumoniae TN 1711; Trypticase soy agar; inoculum about 10^8 CFU/ml; overnight culture at 37°C; complete growth inhibition. Here is the method: as §1, §2
In test [3] the test system is Enterobacter cloacae IFO 12937. Kind of test: MIC by agar dilution method (Test Example). Conditions: IFO12937; test organism (1) Enterobacter cloacae IFO 12937; Trypticase soy agar; inoculum about 10^6 CFU/ml; overnight at 37°C. Here is the method:
(§3) The MIC values for the test compounds were determined by the agar dilution method. Thus, 1.0 ml of each serially diluted aqueous solution of each test compound was poured into a petri dish. Then, 9.0 ml of Trypticase soy agar was added and mixed with the aqueous solution. A suspension of the test organism (about 10^6 CFU/ml) was smeared onto the mixed agar plate and incubated overnight at 37°C.
(§4) • (1) Enterobacter cloacae IFO 12937 • (2) Klebsiella pneumoniae TN 1711 • (3) Pseudomonas aeruginosa GN 3407

For test [4], the system named is Klebsiella pneumoniae TN 1711. The test is described as follows: MIC by agar dilution method (Test Example). Conditions: TN1711; test organism (2) Klebsiella pneumoniae TN 1711; Trypticase soy agar; inoculum about 10^6 CFU/ml; overnight at 37°C. Here is the method: as §3, §4
For test [5], the system named is Pseudomonas aeruginosa GN 3407. Kind of test: MIC by agar dilution method (Test Example). Conditions: GN3407; test organism (3) Pseudomonas aeruginosa GN 3407; Trypticase soy agar; inoculum about 10^6 CFU/ml; overnight at 37°C. The procedure: as §3, §4

Regarding `C[S+]([O-])C[C@@H]1[C@H](NC(=O)/C(=N\OC(C)(C)C(=O)O)c2csc(N)n2)C(=O)N1S(=O)(=O)O` (relative stereo) [cis-3-[2-(2-Amino-4-thiazolyl)-2-(Z)-(1-carboxy-1-methylethoxyimino]acetamido]-4-methylsulfinyl-methyl-2-azetidinone-1-sulfonic acid], the minimal inhibitory concentration (MIC) was determined as 3.13 µg/mL (≈ 6.29 µM) in test [1] and 0.78 µg/mL (≈ 1.57 µM) in test [2].

Consider `COC[C@@H]1[C@H](NC(=O)/C(=N\OC(C)(C)C(=O)O)c2csc(N)n2)C(=O)N1S(=O)(=O)O` (relative stereo) [cis-3-[2-(2-Amino-4-thiazolyl)-2-(Z)-(1-carboxy-1-methylethoxyimino)acetamido]-4-methoxymethyl-2-azetidinone-1-sulfonic acid], for which the MIC in test [1] is 1.56 µg/mL (≈ 3.35 µM); in test [2], 0.2 µg/mL (≈ 0.43 µM).

Consider `CC(C)(O/N=C(\C(=O)N[C@@H]1C(=O)N(S(=O)(=O)O)[C@@H]1CNC(N)=O)c1csc(N)n1)C(=O)O` (relative stereo) [cis-3-[2-(2-Amino-4-thiazolyl)-2-(Z)-(1-carboxy-1-methylethoxyimino)acetamido]-4-ureidomethyl-2-azetidinone-1-sulfonic acid], for which the MIC in test [1] was 12.5 µg/mL (≈ 25.3 µM); in test [2], 3.13 µg/mL (≈ 6.34 µM).

As to `CCC[C@H]1[C@H](NC(=O)/C(=N\OC(C)(C)C(=O)O)c2csc(N)n2)C(=O)N1S(=O)(=O)O` [Sodium [3S,4S]-3-[(2-(2-aminothiazol-4-yl)-2-(Z)-(1-carboxy-1-methylethoxyimino)acetamido]-4-propyl-2-azetidinone-1-sulfonate], the results for the minimal inhibitory concentration (MIC) in test [1] and in test [2] were 12.5 µg/mL and 0.78 µg/mL, respectively.

`CC(C)(O/N=C(\C(=O)N[C@@H]1C(=O)N(S(=O)(=O)[O-])[C@@H]1C[n+]1ccccc1)c1csc(N)n1)C(=O)O` (relative stereo) [Monosodium cis-3-[2-(2-amino-4-thiazolyl)-2-(Z)-(1-carboxylato-1-methylethoxyimino)acetamido]-4-pyridiniomethyl-2-azetidinone-1-sulfonate]: the MIC in test [1] came out at 3.13 µg/mL; in test [2], 12.5 µg/mL.

Take `CC(C)(O/N=C(\C(=O)N[C@@H]1C(=O)N(S(=O)(=O)O)[C@@H]1CS(C)(=O)=O)c1csc(N)n1)C(=O)O` (relative stereo) [cis-3-[2-(2-Amino-4-thiazolyl)-2-(Z)-(1-carboxy-1-methylethoxyimino)acetamido]-4-methylsulfonyl-methyl-2-azetidinone-1-sulfonic acid]: the minimum inhibitory concentration (MIC) is 12.5 µg/mL (≈ 24.3 µM) in test [1] and 1.56 µg/mL (≈ 3.04 µM) in test [2].

For `CC(C)(O/N=C(\C(=O)N[C@@H]1C(=O)N(S(=O)(=O)O)[C@@H]1COC(N)=O)c1csc(N)n1)C(=O)O` [Example 4'], the minimum inhibitory concentration (MIC) in test [3] is 0.39 µg/mL (≈ 0.789 µM); in test [4] it was 0.1 µg/mL (≈ 0.202 µM); in test [5] it was 6.25 µg/mL (≈ 12.6 µM).

`COC[C@@H]1[C@H](NC(=O)/C(=N\OCC(=O)O)c2csc(N)n2)C(=O)N1S(=O)(=O)O` (relative stereo) [cis-3-[2-(2-Amino-4-thiazolyl)-2-(Z)-carboxy-methoxyiminoacetamido]-4-methoxymethyl-2-azetidinone-1-sulfonic acid]: the values for the MIC in test [1] and in test [2] were 3.13 µg/mL (≈ 7.16 µM) and 0.1 µg/mL (≈ 0.229 µM), respectively.

`CO/N=C(\C(=O)N[C@@H]1C(=O)N(S(=O)(=O)O)[C@H]1CC(C)=O)c1csc(N)n1` [Sodium [3S, 4S]-trans-3-[2-(2-aminothiazol-4-yl]-2-(Z)-methoxyimino]acetamido]-4-(2-oxopropyl)-2-azetidinone-1-sulfonate] registered an MIC in test [1] of 6.25 µg/mL.

For the compound `COC(=O)CC[C@@H]1[C@H](NC(=O)/C(=N\OC(C)(C)C(=O)O)c2csc(N)n2)C(=O)N1S(=O)(=O)O` (relative stereo) [cis-3-[2-(2-Amino-4-thiazolyl)-2-(Z)-(1-carboxy-1-methylethoxyamino)acetamido]-4-(2-methoxy-carbonylethyl)-2-azetidinone-1-sulfonic acid], the minimal inhibitory concentration (MIC) is 6.25 µg/mL (≈ 12.3 µM) in test [1] and 3.13 µg/mL (≈ 6.17 µM) in test [2].

In the case of `CC(=O)CC1C(NC(=O)C(=NOC(C)(C)C(=O)O)c2csc(N)n2)C(=O)N1S(=O)(=O)O` (centres unmarked) [Sodium [3S,4S]-3-[(2-(2-aminothiazol-4-yl)-2-(Z)-(1-carboxy-1-methylethoxyimino]acetamido]-4-(2-oxopropyl)-2-azetidinone-1-sulfonate], the MIC in test [1] is 12.5 µg/mL; in test [2], 3.13 µg/mL.

For `CON=C(C(=O)NC1C(=O)N(S(=O)(=O)O)C1CC(C)=O)c1csc(N)n1` (stereo not drawn) [Sodium [3S,4S]-cis-3-[(2-(2-aminothiazol-4-yl)-2-(Z)-methoxyimino]acetamido]-4-(2-oxopropyl)-2-azetidinone-1-sulfonate], the MIC in test [1] and in test [2] was 3.13 µg/mL in each case.

For `NC(=O)OC[C@@H]1[C@H](NC(=O)/C(=N\OCC(=O)O)c2csc(N)n2)C(=O)N1S(=O)(=O)O` [Example 2'], the MIC in test [3] amounted to 0.05 µg/mL (≈ 0.107 µM); in test [4], 0.05 µg/mL (≈ 0.107 µM); in test [5], 1.56 µg/mL (≈ 3.34 µM).

In the case of `CO/N=C(\C(=O)N[C@@H]1C(=O)N(S(=O)(=O)O)[C@@H]1C(N)=O)c1csc(N)n1` (relative stereo) [Sodium cis-3-[2-(2-amino-4-thiazolyl)-2-(Z)-methoxyiminoacetamido]-4-carbamoyl-2-azetidinone-1-sulfonate], the results for the MIC in test [1] and in test [2] were 1.56 µg/mL and 0.39 µg/mL, respectively.

The record behind these values is patent EP0093376B2, “1-Sulfo-2-azetidinone derivatives, their production and use” (Takeda Chemical Industries, Ltd., priority 1982, dated 1983).
